The values below come from US20120046292A1, “[…] COMPOUND” (ASTELLAS PHARMA INC., priority 2009, published 2012).

Broadly, the IC50 is the concentration that inhibits the measured activity by half. A high value points to weaker potency in that assay.

One test concerns the target T1, human DGAT1 (hDGAT1) (Homo sapiens, UniProt O75907).
T1 construct: made in house; host or cells: Sf9 insect cells (Bac-to-Bac baculovirus, pFastBac1); microsomal fraction
T1 sequence (O75907 1-488): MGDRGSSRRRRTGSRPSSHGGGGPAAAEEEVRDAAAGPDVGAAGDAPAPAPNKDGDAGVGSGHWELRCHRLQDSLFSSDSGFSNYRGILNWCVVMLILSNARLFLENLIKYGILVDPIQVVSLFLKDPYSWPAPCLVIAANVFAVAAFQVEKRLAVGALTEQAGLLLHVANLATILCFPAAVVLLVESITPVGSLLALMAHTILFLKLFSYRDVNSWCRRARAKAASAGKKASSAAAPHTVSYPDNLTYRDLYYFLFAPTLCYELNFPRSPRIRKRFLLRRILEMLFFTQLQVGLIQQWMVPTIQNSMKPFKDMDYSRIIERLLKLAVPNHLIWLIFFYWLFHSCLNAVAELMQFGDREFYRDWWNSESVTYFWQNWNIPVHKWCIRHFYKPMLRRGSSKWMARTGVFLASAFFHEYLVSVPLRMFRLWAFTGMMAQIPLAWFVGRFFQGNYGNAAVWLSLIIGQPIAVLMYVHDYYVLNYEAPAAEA
In words: DGAT1 inhibitory activity test (hDGAT1-expressing Sf9 cell microsome, [14C]oleoyl-CoA, FlashPlate). The format is biochemical. As to conditions: test substance 1, 10, 100, 1000 nM, linear regression. On the procedure: (1) Production of Bacmid-hDGAT1
A base sequence encoding a human DGAT1 (hDGAT1) (1467 bases of CDS in Genbank Accession No. NM_012079) was cloned and ligated to pFastBac™1 (Invitrogen) to produce a pFastBac1-hDGAT1. From this plasmid, an engineered baculovirus liquid (Bacmid-hDGAT1) was prepared using a Bac-to-Bac (registered trademark) Baculovirus Expression System (Invitrogen).
(2) Preparation of Sf9 Cell-Derived DGAT1-Expressing Microsomal Fraction
Sf9 cells were seeded into a 225-cm^2 Flask Angled Neck (CORNING) to a confluency of 80%, and statically cultured in an incubator at 27° C. using an EX-CELL™ 420 INSECT SERUM-FREE MEDIUM (SAFC Biosciences, Inc.). After 24 hours, the culture medium was taken out, and a liquid obtained by diluting 1.67 mL of an engineered baculovirus medium (Bacmid-hDGAT1) with 3.33 mL of an EX-CELL™ 420 INSECT SERUM-FREE MEDIUM was added thereto, and the resultant was cultured under shaking in an incubator at 27° C. for 1 hour. Thereafter, 25 mL of an EX-CELL™ 420 INSECT SERUM-FREE MEDIUM was added thereto, followed by culturing in an incubator at 27° C. for 72 hours. The infected cells were harvested, diluted with 1.5 mL of a buffer A (40 mM phosphate buffer (pH 7.2) including 100 mM sucrose and 50 mM KCl) containing a Complete Protease Inhibitor Cocktail (Roche Diagnostics K. K.), and then subjected to sonication using a SONIFER 250 (BRANSON Ultrasonic Corp.). This suspension was centrifuged at 10000×g for 5 minutes and the supernatant was recovered. This supernatant was centrifuged at 100000×g for 60 minutes and the resulting precipitate was dissolved in 600 μL of a buffer A and then subjected to sonication again, to prepare a suspension. This suspension was taken as a hDGAT1-expressing Sf9 cell microsome.
(3) DGAT1 Activity Measurement
For the DGAT1 activity, a test substance in DMSO (final DMSO concentration 2%) in which 100 mM Tris-HCl (pH 8.0), 2 mM MgCl2, 0.01% BSA, a hDGAT1-expressing Sf9 cell microsome, 200 μM dioleoyl glycerol or dipalmitoyl glycerol, 8.9 μM [^14C] oleoyl-CoA, and 1.68% acetone were added to a phospholipid FlashPlate (PerkinElmer Life Science). The reaction was carried out at 30° C. for 60 minutes, and then twice the amount (100 μL), relative to the reaction liquid, of a mixture of isopropyl alcohol:0.1 M carbonate buffer (pH 9.0) at a ratio of 1:1 was added thereto to stop the reaction. The next day, the count was measured with a TopCount microplate scintillation counter (PerkinElmer Life Science).
The count without addition of the test substance was taken as a control (TG with addition of DMSO). The count without addition of the test substance and the microsome was taken as a Blank TG. The DGAT1 inhibitory rate of the test substance was calculated by the following calculation equation:
Inhibitory Rate (%)=(TG with addition of test substance−Blank TG)÷(TG with addition of DMSO−Blank TG)×100
The DGAT1 inhibitory rates were calculated when the concentrations of the test substance in the reaction liquid were 1, 10, 100, and 1000 nM. Linear regression was performed using the inhibitory rates obtained, and a test substance concentration (IC50) required to inhibit the DGAT1 activity by 50% was calculated by an SAS 8.2 software package (SAS Institute Japan, Ltd., Tokyo, Japan).

The subject of the next test is male C57BL/6J mice. As to the kind of experiment: Inhibitory action on increase in triglyceride (TG) by fat administration. The format is in vivo. The note with it: administration amount 0.3 mg/kg; fat (intralipid 20%, 10 mL/kg) orally 20 hours after dosing; plasma TG 2 hours after fat; control 0.5% methyl cellulose group. Here is the method:
8- to 15-week male C57BL/6J mice were fasted for four hours, and the test substances were administered to the mice. The test substance was administered after suspending it in a 0.5% methyl cellulose solution. After 20 hours, fat (intralipid 20%, Terumo (Fresenius), 10 mL/kg) was orally administered thereto. Immediately before and after 2 hours from administration of the fat, blood was collected from the tail vein to obtain plasma. For measurement of the TG in plasma, a TG increase in the plasma by fat administration was calculated using a Triglyceride E Test Wako (Wako Pure Chemical Industries Ltd.). Using the TG increase in the plasma in a group to which 0.5% methyl cellulose had been administered as a control, the TG increase inhibitory rate when the test substance had been administered was determined.

The test system of a further test is DIO mice. As to the kind of experiment: Anti-obesity action in DIO mice. The format is in vivo. The note with it: oral, once per day, administration period 2 weeks, 1 mg/kg; high-fat diet C57BL/6J mice; solvent group weight increase = 100%. On the procedure: High-fat diet formula (Research Diet D12492, 60 kcal % fat) were given to 9-week male C57BL/6J mice. For acclimatization of the mice, the solvent used in the test from the 4th week was administered thereto. From the 5th week, the test substance was orally administered once or twice daily. The test substance was administered after suspending it in a 0.5% methyl cellulose solution. Administration was performed repeatedly for 2 or 4 weeks, and variation in the weights due to the test substance administration was observed. By taking the increase in the weight in the group to which the solvent had been administered within a test period as 100%, the weight increase inhibitory rate of the test substance was calculated.

The compound `O=C(O)CC1CCC(c2ccc(C(=O)NCCNC(=O)c3ccc(Cl)cc3)cc2)CC1` (stereo not drawn) [Example 6, {4-[4-({2-[(4-chlorobenzoyl)amino]ethyl}carbamoyl)phenyl]cyclohexyl}acetic acid] yielded an IC50 against human DGAT1 (hDGAT1) of 20 nM.

With `CCOc1ccc(C(=O)NCCNC(=O)c2ccc(O[C@H]3CC[C@@H](C(=O)O)CC3)cc2)cc1` [Example 18], the IC50 on human DGAT1 (hDGAT1) was 21 nM.

In turn, `CCCCCC12CCC(C(=O)NCCNC(=O)c3ccc(O[C@H]4CC[C@@H](C(=O)O)CC4)cc3)(CC1)CC2` [Example 20] came in with a concentration for half-maximal inhibition (IC50) against human DGAT1 (hDGAT1) of 2.1 nM.

Turning to `O=C(NCCNC(=O)c1ccc(O[C@H]2CC[C@@H](C(=O)O)CC2)cc1)Nc1ccccc1Cl` [Example 56], the IC50 against human DGAT1 (hDGAT1) amounted to 14 nM.

With `O=C(NCCNC(=O)c1ccc(O[C@H]2CC[C@@H](C(=O)O)CC2)cc1)c1ccc(Oc2ccc(F)cc2)cc1` [Example 63], the IC50 at human DGAT1 (hDGAT1) was 0.4 nM. This IC50 lies about 35-fold lower than the previous one.

The compound `O=C(NCCNC(=O)c1ccc(C2CC2)cc1)c1ccc(O[C@H]2CC[C@@H](C(=O)O)CC2)cc1` [Example 79] returned an IC50 at human DGAT1 (hDGAT1) of 2.3 nM. In addition, the “TG increase inhibitory rate” value with male C57BL/6J mice came to 79%.

Compound `O=C(NCCNC(=O)c1ccc(F)c(C(F)(F)F)c1)c1ccc(O[C@H]2CC[C@@H](C(=O)O)CC2)cc1` [Example 82] had an IC50 against human DGAT1 (hDGAT1) of 9.9 nM.

For `O=C(NCCNC(=O)c1ccc2ccccc2c1)c1ccc(O[C@H]2CC[C@@H](C(=O)O)CC2)cc1` [Example 83], the IC50 against human DGAT1 (hDGAT1) was found to be 5.2 nM.

On to `Cc1cc(C(=O)NCCNC(=O)c2ccc(O[C@H]3CC[C@@H](C(=O)O)CC3)cc2)ccc1Cl` [Example 106], for which the IC50 against human DGAT1 (hDGAT1) stood at 5.3 nM.

At human DGAT1 (hDGAT1), `O=C(NCCNC(=O)c1ccc(C2CC2)c(Cl)c1)c1ccc(O[C@H]2CC[C@@H](C(=O)O)CC2)c(F)c1` [Example 135] gave an IC50 of 5.8 nM.

In turn, `O=C(NCCNC(=O)c1cc2cc(OC(F)(F)F)ccc2[nH]1)c1ccc(O[C@H]2CC[C@@H](C(=O)O)CC2)cc1` [Example 148] returned an IC50 on human DGAT1 (hDGAT1) of 4.2 nM.

As to `O=C(NCCNC(=O)c1ccc(O[C@H]2CC[C@@H](C(=O)O)CC2)cc1F)c1ccc2ccccc2c1` [Example 169], at human DGAT1 (hDGAT1), the midpoint of inhibition, the IC50, lay at 2.7 nM. Also, the “TG increase inhibitory rate” value in the test with male C57BL/6J mice is reported as 75%.

`Cc1cc(O[C@H]2CC[C@@H](C(=O)O)CC2)ccc1C(=O)NCCNC(=O)c1ccc(C(F)(F)F)cc1` [Example 187] gave an IC50 on human DGAT1 (hDGAT1) of 8.1 nM.

On human DGAT1 (hDGAT1), `CCOc1ccc(C(=O)NCCNC(=O)c2ccc(O[C@H]3CC[C@@H](C(=O)O)CC3)nc2)cc1Cl` [Example 245] gave an IC50 of 14 nM.

For the compound `O=C(NCCNC(=O)c1c(F)cc(O[C@H]2CC[C@@H](C(=O)O)CC2)cc1F)c1ccc2ccccc2c1` [Example 299], on human DGAT1 (hDGAT1), the IC50 was determined as 6.7 nM.

For `O=C(NCCNC(=O)c1ccc(O[C@H]2CC[C@@H](C(=O)O)CC2)c(F)c1F)c1ccc2ccccc2c1` [Example 300], the IC50 at human DGAT1 (hDGAT1) was found to be 5.6 nM.

In the case of `O=C(NCCNC(=O)c1cc(F)c(O[C@H]2CC[C@@H](C(=O)O)CC2)cc1F)c1ccc2ccccc2c1` [Example 454], the “weight increase inhibitory rate” value in the test on DIO mice is listed as 93%. The same compound displayed an IC50 against human DGAT1 (hDGAT1) of 1 nM. In the test on male C57BL/6J mice, the “TG increase inhibitory rate” value is 106%.

In turn, `O=C(NCCNC(=O)c1sc2ccccc2c1Cl)c1ccc(O[C@H]2CC[C@@H](C(=O)O)CC2)cc1` [Example 469] registered a half-inhibitory concentration (IC50) against human DGAT1 (hDGAT1) of 1.7 nM. Moreover, the “TG increase inhibitory rate” value with male C57BL/6J mice came to 109%.

Regarding `O=C(NCCNC(=O)N1CCC(c2ccc(Cl)cc2)CC1)c1ccc(O[C@H]2CC[C@@H](C(=O)O)CC2)c(F)c1F` [Example 480], half-maximal inhibition on human DGAT1 (hDGAT1) (IC50) was put at 5.2 nM.

Take `O=C(NCCNC(=O)c1ccc(O[C@H]2CC[C@@H](C(=O)O)CC2)c(F)c1F)c1ccc(Cl)s1` [Example 490]: the “weight increase inhibitory rate” value in the test on DIO mice was found to be 98%. Also, the IC50 against human DGAT1 (hDGAT1) is 3.8 nM. Moreover, the “TG increase inhibitory rate” value in the test on male C57BL/6J mice worked out at 92%.

On human DGAT1 (hDGAT1), `O=C(NCCNC(=O)c1ccc(O[C@H]2CC[C@@H](C(=O)O)CC2)cc1F)c1cc2cc(F)ccc2s1` [Example 531] came in with an IC50 of 0.1 nM.

At human DGAT1 (hDGAT1), `O=C(O)C[C@H]1CC[C@@H](Oc2cc(F)c(C(=O)NCCNC(=O)c3ccc4ccccc4c3)cc2F)CC1` [Example 571] yielded an IC50 of 1.6 nM. Compared with the last compound, the IC50 is about 16-fold higher.

On to `O=C(O)CC1CCN(c2c(F)cc(C(=O)NCCNC(=O)c3sc4ccccc4c3Cl)cc2F)CC1` [Example 604], for which, on human DGAT1 (hDGAT1), the half-maximal inhibitory concentration (IC50) was 32 nM.
